Laboratory results published in the NIST ThermoML archive (doi:10.1016/j.fluid.2004.12.012).
Numbers after ± are expanded uncertainties.

Tests used:
[1] = Crystal; DTA
[2] = Molar enthalpy of transition or fusion; details: Crystal; DSC

COc1cc(C=O)ccc1O [vanillin]
Normal melting temperature [1]: 82.4 ± 0.5 °C | Molar enthalpy of transition or fusion [2]: 5.73 ± 0.167 kcal/mol

COc1cccc(C=O)c1O [2-hydroxy-3-methoxybenzaldehyde]
Normal melting temperature [1]: 40.5 ± 0.5 °C | Molar enthalpy of transition or fusion [2]: 4.94 ± 0.148 kcal/mol

CCOc1cccc(C=O)c1O [3-ethoxysalicylaldehyde]
Normal melting temperature [1]: 64.1 ± 0.5 °C | Molar enthalpy of transition or fusion [2]: 6.08 ± 0.179 kcal/mol

CCOc1cc(C=O)ccc1O [3-ethoxy-4-hydroxybenzaldehyde]
Normal melting temperature [1]: 76.7 ± 0.5 °C | Molar enthalpy of transition or fusion [2]: 6.06 ± 0.174 kcal/mol
